PubChem BioAssay (NCI)
“And” between values parts separate entries of the source, which are not always exact repeats. Identical values can stand only once.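 Cells were grown in 96-well plates and exposed to each compound for 48 hours at five concentrations; endpoints were interpolated linearly between bracketing concentrations, or set to the highest concentration if not reached. GI50 is the concentration that inhibits growth by half. TGI denotes the concentration required for complete inhibition of growth.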

Tests used:
Assay in all cases: inhibition of tumour cell growth, NCI panel, 48 h
IGROV1 ovarian = test system: IGROV1 ovarian
KM20L2 colon = test system: KM20L2 colon
OVCAR-5 ovarian = test system: OVCAR-5 ovarian
MOLT-4 leukemia = test system: MOLT-4 leukemia
U251 CNS = test system: U251 CNS
SK-MEL-5 melanoma = test system: SK-MEL-5 melanoma
SK-MEL-2 melanoma = test system: SK-MEL-2 melanoma
A498 renal = test system: A498 renal
HCT-116 colon = test system: HCT-116 colon
MDA-N = test system: MDA-N

Row | SMILES | TGI (IGROV1 ovarian) | TGI (KM20L2 colon) | TGI (OVCAR-5 ovarian) | TGI (MOLT-4 leukemia) | TGI (U251 CNS) | TGI (SK-MEL-5 melanoma) | TGI (SK-MEL-2 melanoma) | TGI (A498 renal) | TGI (HCT-116 colon) | TGI (MDA-N) | GI50 (IGROV1 ovarian) | GI50 (KM20L2 colon) | GI50 (OVCAR-5 ovarian) | GI50 (MOLT-4 leukemia) | GI50 (U251 CNS) | GI50 (SK-MEL-5 melanoma) | GI50 (SK-MEL-2 melanoma) | GI50 (A498 renal) | GI50 (HCT-116 colon)
1 | CN(C)N=Nc1ccc(C(N)=O)cc1 | > 100 µM | > 100 µM | > 100 µM | > 100 µM | > 100 µM | > 100 µM | > 100 µM | > 100 µM | > 100 µM | – | – | – | – | – | – | – | – | – | –
2 | Cc1cnc(NCCCN(C)C)c2c1[nH]c1ccc3cc(O)ccc3c12 | 4.6 µM | 2.29 µM | 3.95 µM | 0.534 µM | 1.02 µM | 2.2 µM | 2.47 µM | 3.71 µM | 1.44 µM | 2.21 µM | – | – | – | – | – | – | – | – | –
3 | O=C(O)CCNCCCNCCC(=O)O | > 100 µM | > 100 µM | > 100 µM | > 100 µM | > 100 µM | > 100 µM | > 100 µM | > 100 µM | > 100 µM | – | – | – | – | – | – | – | – | – | –
4 | COc1cc2ccnc([C@@H](OC(=O)c3ccccc3)c3ccc(OC)c(OC)c3OC)c2cc1OC | > 100 µM | > 100 µM | > 100 µM | > 100 µM | > 100 µM | 56.6 µM | > 100 µM | > 100 µM | > 100 µM | – | – | – | – | – | – | – | – | – | –
5 | CCN(CC)CCSc1c2ccccc2nc2cc(NCC(=O)Nc3ccccc3-c3ccccc3NC(=O)CNc3ccc4c(SCCN(CC)CC)c5ccccc5nc4c3)ccc12 | > 100 µM | > 100 µM | > 100 µM | > 76.9 µM | > 100 µM | > 100 µM | > 100 µM | > 100 µM | > 100 µM | – | – | – | – | – | – | – | – | – | –
6 | O=C(Nc1nc2ccc([N+](=O)[O-])cc2s1)C(=O)C(C1OC(=O)c2ccccc21)[N+](=O)[O-] (configuration not stated) | > 100 µM | > 100 µM | > 100 µM | > 100 µM | > 100 µM | > 100 µM | > 100 µM | 45 µM | > 100 µM | – | – | – | – | – | – | – | – | – | –
7 | O=C(O)CCC(NC(=O)c1ccc(Nc2nc3ccccc3nc2-c2cccs2)cc1)C(=O)O (configuration not stated) | > 100 µM | > 100 µM | > 100 µM | > 100 µM | > 100 µM | > 100 µM | > 100 µM | > 100 µM | > 100 µM | – | – | – | – | – | – | – | – | – | –
8 | CCn1c(C)nn2c(=O)c3ccccc3nc2c1=O | > 100 µM | > 100 µM | > 100 µM | > 100 µM | > 100 µM | > 100 µM | > 100 µM | > 100 µM | > 100 µM | – | – | – | – | – | – | – | – | – | –
9 | O=C(Nc1ccccc1)c1c(O)[nH]c(=S)[nH]c1=O | 97.1 µM and > 250 µM | 125 µM and > 250 µM | 110 µM and > 250 µM | 53.2 µM and 96.4 µM | 109 µM and > 250 µM | 46 µM and 85.2 µM | 101 µM and 179 µM | 106 µM and > 250 µM | 111 µM and > 250 µM | 125 µM | 45.9 µM | 87.2 µM | 89.6 µM | 40 µM | 66.5 µM | 40.5 µM | 61.6 µM | 65.2 µM | 58.6 µM
10 | Cc1cc(NS(=O)(=O)c2ccc(Nc3c4ccccc4nc4c(C(=O)N5CCN(CCOS(C)(=O)=O)CC5)cccc34)cc2)no1 | > 100 µM | > 100 µM | > 100 µM | > 100 µM | > 100 µM | > 100 µM | > 100 µM | > 100 µM | > 100 µM | – | – | – | – | – | – | – | – | – | –
11 | Cc1c(C(=O)C/C(=N/NC(=O)c2ccccc2O)C(=O)Nc2ccccc2C(C)C)[n+](=O)c2ccccc2n1[O-] | > 100 µM | > 100 µM | > 100 µM | 21.9 µM | > 100 µM | > 100 µM | 8.81 µM | > 100 µM | > 100 µM | – | – | – | – | – | – | – | – | – | –
12 | COC(=O)c1ccccc1NC(=O)C(=O)Cc1nc2c3c(ccc2[nH]c1=O)C(=O)c1ccccc1C3=O | 99.1 µM | > 100 µM | > 100 µM | 99.6 µM | 35.9 µM | 13.6 µM | > 100 µM | > 100 µM | 34.7 µM | – | – | – | – | – | – | – | – | – | –
13 | CC1(C(=O)O)CCC[C@@]2(C)C1CC[C@@]1(C)c3cocc3CCC21 (some centres not stated) | > 100 µM | > 100 µM | > 100 µM | > 100 µM | > 100 µM | > 100 µM | > 100 µM | > 100 µM | > 100 µM | – | – | – | – | – | – | – | – | – | –
14 | CCOC(=O)CCC1(C(=O)OCC)CCCCC1=O (configuration not stated) | > 100 µM | > 100 µM | > 100 µM | > 100 µM | > 100 µM | > 100 µM | > 100 µM | > 100 µM | > 100 µM | – | – | – | – | – | – | – | – | – | –
